Drawing on ChEMBL document CHEMBL1156989, “Discovery of novel small molecule orally bioavailable C-X-C chemokine receptor 4 antagonists that are potent inhibitors of T-tropic (X4) HIV-1 replication” (J Med Chem, 2010), this text covers IC50 and CC50 for 39 molecules.

One may read the IC50 as the point on the concentration scale where inhibition reaches its midpoint. What is called CC50 is the concentration that lowers cell viability or growth by half.

For data set [1], the system named is Human immunodeficiency virus 1. The experiment in a line: Antiviral activity against HIV1 NL4.3 infected in human MT4 cells expressing CD4 and CXCR4 assessed as inhibition of virus-induced cytopathicity. It is filed as functional, organism-based. The note with it: Human immunodeficiency virus 1, NL4.3, MT4. (In general: Cytopathic effects are the visible damage that an infection or toxin causes in cultured cells.)

Data set [2] can be described thus: Cytotoxicity against human MT4 cells expressing CD4 and CXCR4 assessed as cell viability.
Data set [3] deals with T1, C-X-C chemokine receptor type 4 (Homo sapiens, UniProt P61073). The experiment in a line: Antagonist activity at CXCR4 in human CEM-CCRF cells assessed as inhibition of SDF-1-induced calcium flux. Type of data set: functional, cell-based. (In general: Calcium assays in cells follow changes in intracellular calcium, usually with a dye or a luminescent sensor.)
The target of data set [4] is T1, C-X-C chemokine receptor type 4. The experiment in a line: Inhibition of anti-CXCR4 12G5 monoclonal antibody to CXCR4 in human SUP-T1 cells pretreated for 30 mins by flow cytometry. It is filed as cell-based.
Setting [5] is: MT4 cells expressing CD4 and CXCR4.

T1 sequence (P61073 whole entry): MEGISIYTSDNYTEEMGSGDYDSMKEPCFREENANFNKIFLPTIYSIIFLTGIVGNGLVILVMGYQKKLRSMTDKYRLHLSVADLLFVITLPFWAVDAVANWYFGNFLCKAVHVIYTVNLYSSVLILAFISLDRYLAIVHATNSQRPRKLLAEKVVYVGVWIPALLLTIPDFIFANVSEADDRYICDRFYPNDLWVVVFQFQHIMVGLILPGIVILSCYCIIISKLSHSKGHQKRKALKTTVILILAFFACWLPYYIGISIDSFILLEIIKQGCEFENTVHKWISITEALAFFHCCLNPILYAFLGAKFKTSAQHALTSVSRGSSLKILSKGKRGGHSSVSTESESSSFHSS

With `O=C(Nc1ccc(CN(Cc2nc3ccccc3[nH]2)C2CCCc3cccnc32)cc1)c1ccccn1` (configuration not stated), the IC50 in data set [1] was 660 nM. In addition, in data set [2] (setting [5]), the cytotoxic concentration (CC50) amounted to 37500 nM.
Take `NCCCC(=O)N(Cc1nc2ccccc2[nH]1)C1CCCc2cccnc21` (configuration not stated): the half-maximal inhibitory concentration (IC50) in data set [3] is 3200 nM; in data set [1], 2640 nM. Also, in data set [2] (setting [5]), the CC50 is 152000 nM.
For `N#CCCCCN(Cc1nc2ccccc2[nH]1)C1CCCc2cccnc21` (configuration not stated), the figures for the IC50 in data set [3] and in data set [1] were 442 nM and 774 nM, respectively. Also, in data set [2] (mt4), the CC50 was 55300 nM.
On to `NCCCCN(Cc1nc2ccccc2[nH]1)C1CCCc2cccnc21` (configuration not stated), for which the IC50 in data set [1] is 4.8 nM. For the same molecule, the CC50 in data set [2] (setting [5]) stood at 160000 nM.
Take `NC/C=C/CN(Cc1nc2ccccc2[nH]1)C1CCCc2cccnc21` (configuration not stated): the IC50 worked out at 160 nM in data set [3] and 28 nM in data set [1]. Moreover, the CC50 in data set [2] (setting [5]) was determined as 50800 nM.
`c1ccc(CNCc2ccc(CNC3CCc4cccnc43)cc2)nc1` (configuration not stated): the IC50 in data set [1] amounted to 14100 nM.
With `c1ccc(CNCc2ccc(CN(Cc3nc4ccccc4o3)C3CCCc4cccnc43)cc2)nc1` (configuration not stated), in data set [1], the IC50 amounted to 9100 nM. Moreover, the CC50 in data set [2] (setting [5]) came out at 204000 nM.
On to `NC/C=C\CN(Cc1nc2ccccc2[nH]1)C1CCCc2cccnc21` (configuration not stated), for which the results for the IC50 in data set [3] and in data set [1] were 77 nM and 15 nM, respectively. For the same molecule, the cytotoxic concentration (CC50) in data set [2] (setting [5]) was determined as 51900 nM.
For the molecule `NCc1cccc(CN(Cc2nc3ccccc3[nH]2)C2CCCc3cccnc32)c1` (configuration not stated), the concentration for half-maximal inhibition (IC50) in data set [3] amounted to 1400 nM; in data set [1], 575 nM. The CC50 in data set [2] (setting [5]) stood at 45900 nM.
`NCCN(Cc1ccc(CNCc2ccccn2)cc1)C1CCCc2cccnc21` (configuration not stated): in data set [1], the IC50 was > 25000 nM. In data set [2] (setting [5]), the CC50 was 126000 nM.
Taken in the same sequence, the figures for `c1ccc(CNCc2ccc(CN(Cn3cnc4ccccc43)C3CCCc4cccnc43)cc2)nc1` (configuration not stated) were 18800 nM and 21000 nM.
As to `c1ccc(CNCCN(Cc2ccc(CNCc3ccccn3)cc2)C2CCCc3cccnc32)cc1` (configuration not stated), in data set [1], the IC50 was 920 nM. Further, the 50% cytotoxic concentration (CC50) in data set [2] (setting [5]) turned out to be 23000 nM.
As for `CN(C)CCCCN(Cc1nc2ccccc2[nH]1)C1CCCc2cccnc21` (configuration not stated), the IC50 in data set [3] turned out to be 87 nM; in data set [1], 51 nM. Further, the CC50 in data set [2] (setting [5]) was found to be 29500 nM.
In the case of `c1ccc(CNCc2ccc(CN(Cc3ncc[nH]3)C3CCCc4cccnc43)cc2)nc1` (configuration not stated), the IC50 in data set [1] was determined as 200 nM. In addition, in data set [2] (setting [5]), the CC50 came to 500 nM.
Consider `c1ccc(CNCc2ccc(CN(Cc3ccccn3)C3CCc4cccnc43)cc2)nc1` (configuration not stated), for which the IC50 in data set [1] was found to be 4900 nM. Also, the CC50 in data set [2] (setting [5]) was 124000 nM.
`c1ccc(CNCc2ccc(CNC3CCCc4cccnc43)cc2)nc1` (configuration not stated): in data set [1], the IC50 was determined as 2700 nM.
Consider `NCCCCCN(Cc1nc2ccccc2[nH]1)C1CCCc2cccnc21` (configuration not stated), for which the figures for the half-maximal inhibitory concentration (IC50) in data set [3] and in data set [1] were 514 nM and 74 nM, respectively. In addition, the cytotoxic concentration (CC50) in data set [2] (setting [5]) came to 30200 nM.
As to `c1ccc(CNCc2ccc(CN(Cc3cc4ccccc4[nH]3)C3CCCc4cccnc43)cc2)nc1` (configuration not stated), the IC50 in data set [1] amounted to 1600 nM. Also, the CC50 in data set [2] (setting [5]) is 8000 nM.
With `c1ccc(CNCc2ccc(CNC3CCCCc4cccnc43)cc2)nc1` (configuration not stated), the IC50 in data set [1] stood at 2500 nM.
As for `NCCCN(Cc1nc2ccccc2[nH]1)C1CCCc2cccnc21` (configuration not stated), the IC50 is 68 nM in data set [3] and 77 nM in data set [1]. For the same molecule, the CC50 in data set [2] (setting [5]) worked out at 32900 nM.
With `CNCCCCN(Cc1nc2ccccc2[nH]1)C1CCCc2cccnc21` (configuration not stated), the IC50 in data set [3] is 190 nM. The CC50 in data set [2] (setting [5]) came to 28200 nM.
Consider `NCCCCCCN(Cc1nc2ccccc2[nH]1)C1CCCc2cccnc21` (configuration not stated), for which the IC50 in data set [3] amounted to 75 nM; in data set [1], 101 nM. For the same molecule, the CC50 in data set [2] (mt4) came out at 30200 nM.
`c1ccc(CNCc2ccc(CN(Cc3nc4ccccc4[nH]3)[C@@H]3CCCc4cccnc43)cc2)nc1`: the IC50 in data set [1] was determined as 1080 nM; in data set [4], 29200 nM.
In the case of `NCc1ccccc1CN(Cc1nc2ccccc2[nH]1)C1CCCc2cccnc21` (configuration not stated), the figures for the IC50 in data set [3] and in data set [1] were 50 nM and 21 nM, respectively. For the same molecule, in data set [2] (setting [5]), the half-maximal cytotoxic concentration (CC50) was 29600 nM.
As for `c1ccc(CNCc2ccc(CN(CCc3nc4ccccc4[nH]3)C3CCCc4cccnc43)cc2)nc1` (configuration not stated), the IC50 in data set [1] amounted to 1100 nM. Also, in data set [2] (setting [5]), the CC50 is 23100 nM.
Turning to `c1ccc(CNCc2ccc(CN(Cc3ccccn3)C3CCCc4cccnc43)cc2)nc1` (configuration not stated), the IC50 in data set [1] is 270 nM. In data set [2] (setting [5]), the CC50 was 44000 nM.
As for `c1ccc(CN(Cc2ccc(CNCc3ccccn3)cc2)C2CCCc3cccnc32)cc1` (configuration not stated), the 50% inhibitory concentration (IC50) in data set [1] is > 4300 nM. Further, in data set [2] (setting [5]), the CC50 was 21000 nM.
Consider `O=C(Nc1ccccn1)c1ccc(CN(Cc2nc3ccccc3[nH]2)C2CCCc3cccnc32)cc1` (configuration not stated), for which the IC50 in data set [1] is 980 nM. In addition, in data set [2] (setting [5]), the CC50 stood at 34300 nM.
With `O=C(NCc1ccc(CN(Cc2nc3ccccc3[nH]2)C2CCCc3cccnc32)cc1)c1ccccn1` (configuration not stated), the IC50 in data set [1] was found to be 880 nM. In addition, the CC50 in data set [2] (setting [5]) is 36800 nM.
As to `NCC#CCN(Cc1nc2ccccc2[nH]1)C1CCCc2cccnc21` (configuration not stated), the values for the IC50 in data set [3] and in data set [1] were 973 nM and 170 nM, respectively. The CC50 in data set [2] (setting [5]) stood at 10800 nM.
As to `c1ccc(CCN(Cc2ccc(CNCc3ccccn3)cc2)C2CCCc3cccnc32)nc1` (configuration not stated), the half-maximal inhibitory concentration (IC50) in data set [1] amounted to 2100 nM. The CC50 in data set [2] (setting [5]) was > 118000 nM.
As for `c1ccc(CNCc2ccc(CN(Cc3nc4ccccc4s3)C3CCCc4cccnc43)cc2)nc1` (configuration not stated), the IC50 in data set [1] came to 4600 nM. In addition, in data set [2] (setting [5]), the CC50 was determined as 22300 nM.
The matching figures for `c1ccc(CNCc2ccc(CN(CCCc3nc4ccccc4[nH]3)C3CCCc4cccnc43)cc2)nc1` (configuration not stated): 1200 nM and 101000 nM.
On to `O=C(NCc1ccccn1)c1ccc(CN(Cc2nc3ccccc3[nH]2)C2CCCc3cccnc32)cc1` (configuration not stated), for which the IC50 in data set [1] was determined as 1440 nM. For the same molecule, the cytotoxic concentration (CC50) in data set [2] (setting [5]) was found to be 127000 nM.
For `c1ccc(CNCCN(Cc2ccc(CNCc3ccccn3)cc2)C2CCCc3cccnc32)nc1` (configuration not stated), the IC50 in data set [1] is 60 nM. Also, the CC50 in data set [2] (setting [5]) worked out at 21000 nM.
For `NCCN(Cc1nc2ccccc2[nH]1)C1CCCc2cccnc21` (configuration not stated), the IC50 in data set [3] and in data set [1] was 1370 nM in each case. Further, in data set [2] (setting [5]), the cytotoxic concentration (CC50) turned out to be 6860 nM.
For `NCCCCN(Cc1nc2ccccc2[nH]1)[C@@H]1CCCc2cccnc21`, the IC50 in data set [1] is 144 nM.
As for `NCc1ccc(CN(Cc2nc3ccccc3[nH]2)C2CCCc3cccnc32)cc1` (configuration not stated), the IC50 stood at 119 nM in data set [3] and 167 nM in data set [1]. For the same molecule, the CC50 in data set [2] (setting [5]) was determined as 238000 nM.
`c1ccc(CNCc2ccc(CN(Cc3nc4ccccc4[nH]3)C3CCCc4cccnc43)cc2)cc1` (configuration not stated): in data set [1], the IC50 was 95 nM. For the same molecule, in data set [2] (setting [5]), the CC50 is 26400 nM.
